Data: patent publication US12226424B2, “Target protein degradation compounds, their anti-tumor use, their intermediates and use of intermediates” (ShanghaiTech University, priority 2018, dated 2025)
Like-named read-outs stand apart in the source and are kept apart here.

What was measured:
[1] = system: K562 cells (BCR-ABL positive); test: Half inhibitory concentration (IC50) on tumor cells, CCK-8, K562; conditions: Homo sapiens, K562, 48 h, read-out: IC50 (nM)/K562 cell line
Experimental: Determination of Half Inhibitory Concentration (IC50) of PROTAD Compounds on Tumor Cells
K562 cells were seeded in 100 μL of RPMI1640 complete medium at a density of 20,000 cells/well. 100 μL of the inoculated cells were treated with 100 μL diluted PROTAD compound of the present disclosure to be tested at 9 successively decreasing concentrations (starting at the highest concentration of 10 μM; 3-fold serial dilutions). After the cells were treated with the tested drugs for 48 hours, the cell viability determination was performed in accordance with CCK-8 reagent operating instructions. The negative control was DMSO, and positive control was a commercial inhibitor. After CCK-8 treatment for 2 h, the value of O.D.450 was measured using a microplate reader.

MV-4-11 cells = test: Half inhibitory concentration (IC50) on BET-expressing tumor cells, CCK-8, MV-4-11
CDK4/6 protein = test: Western-blot determination of CDK4/6 protein degradation (DC50) in T-47D cells; assay type: cell-based, human; conditions: 24 h drug treatment, read-out: DC50(nM)/T-47D cell line
[2] = Homo sapiens, MV4-11, read-out: IC50 (nM)/MV-4-11 cell line, MV-4-11 cells, 48/72 h, CCK-8
[3] = read-out: IC50 (nM)/MV-4-11 cell line, MV-4-11 cells, 48/72 h, CCK-8

Compound	IC50 [1] [nM]	further results
COc1cc(Nc2c(C#N)cnc3cc(OCCCN4CCN(C(=O)CCCSc5cccc6c5C(=O)N(C5CCC(=O)NC5=O)C6=O)CC4)c(OC)cc23)c(Cl)cc1Cl (stereo not drawn) [SIAIS151170, 4-((2,4-dichloro-5-methoxyphenyl)amino)-7-(3-(4-(4-((2-(2,6-dioxopiperidin-3-yl)-1,3-dioxoisoindolin-4-yl)thio)butanoyl)piperazin-1-yl)propoxy)-6-methoxyquinoline-3-carbonitrile]	400	
COc1cc(Nc2c(C#N)cnc3cc(OCCCN4CCN(C(=O)CCCCSc5cccc6c5C(=O)N(C5CCC(=O)NC5=O)C6=O)CC4)c(OC)cc23)c(Cl)cc1Cl (stereo not drawn) [SIAIS151171, 4-((2,4-dichloro-5-methoxyphenyl)amino)-7-(3-(4-(5-((2-(2,6-dioxopiperidin-3-yl)-1,3-dioxoisoindolin-4-yl)thio)pentanoyl)piperazin-1-yl)propoxy)-6-methoxyquinoline-3-carbonitrile]	1540	
COc1cc(Nc2c(C#N)cnc3cc(OCCCN4CCN(C(=O)CCCCCSc5cccc6c5C(=O)N(C5CCC(=O)NC5=O)C6=O)CC4)c(OC)cc23)c(Cl)cc1Cl (stereo not drawn) [SIAIS151172, 4-((2,4-dichloro-5-methoxyphenyl)amino)-7-(3-(4-(6-((2-(2,6-dioxopiperidin-3-yl)-1,3-dioxoisoindolin-4-yl)thio)hexanoyl)piperazin-1-yl)propoxy)-6-methoxyquinoline-3-carbonitrile]	1370	
COc1cc(Nc2c(C#N)cnc3cc(OCCCN4CCN(C(=O)CCCCCCSc5cccc6c5C(=O)N(C5CCC(=O)NC5=O)C6=O)CC4)c(OC)cc23)c(Cl)cc1Cl (stereo not drawn) [SIAIS151173, 4-((2,4-dichloro-5-methoxyphenyl)amino)-7-(3-(4-(7-((2-(2,6-dioxopiperidin-3-yl)-1,3-dioxoisoindolin-4-yl)thio)heptanoyl)piperazin-1-yl)propoxy)-6-methoxyquinoline-3-carbonitrile]	8260	
Cc1sc2c(c1C)C(c1ccc(Cl)cc1)=N[C@@H](CC(=O)NCCOCCSc1cccc3c1CN(C1CCC(=O)NC1=O)C3=O)c1nnc(C)n1-2 (stereo partly drawn) [SIAIS213100, 2-((S)-4-(4-chlorophenyl)-2,3,9-trimethyl-6H-thieno[3,2-f][1,2,4]triazolo[4,3-a][1,4]diazepin-6-yl)-N-(2-(2-((2-(2,6-dioxopiperidin-3-yl)-1-oxoisoindolin-4-yl)thio)ethoxy)ethyl)acetamide]		IC50 (MV-4-11 cells; [2]): 0.5 ± 0.1 nM
Cc1sc2c(c1C)C(c1ccc(Cl)cc1)=N[C@@H](CC(=O)N1CCNCC1)c1nnc(C)n1-2 [SIAIS213113]		IC50 (MV-4-11 cells; [2]): 21.6 nM; IC50 (MV-4-11 cells; [3]): 12.9 nM
Cc1sc2c(c1C)C(c1ccc(Cl)cc1)=N[C@@H](CC(=O)N1CCN(CCCSc3cccc4c3CN(C3CCC(=O)NC3=O)C4=O)CC1)c1nnc(C)n1-2 (stereo partly drawn) [SIAIS213117, 3-(4-((3-(4-(2-((S)-4-(4-chlorophenyl)-2,3,9-trimethyl-6H-thieno[3,2-f][1,2,4]triazolo[4,3-a][1,4]diazepin-6-yl)acetyl)piperazin-1-yl)propyl)thio)-1-oxoisoindolin-2-yl)piperidine-2,6-dione]		IC50 (MV-4-11 cells; [2]): 0.063 nM; IC50 (MV-4-11 cells; [3]): 0.041 nM
Cc1sc2c(c1C)C(c1ccc(Cl)cc1)=N[C@@H](CC(=O)NCCN1CCNCC1)c1nnc(C)n1-2 [SIAIS213130]		IC50 (MV-4-11 cells; [2]): 29.8 nM; IC50 (MV-4-11 cells; [3]): 17.7 nM
Cc1ccc(C(=O)Nc2ccc(CN3CCN(C(=O)CCCCCCSc4cccc5c4C(=O)N(C4CCC(=O)NC4=O)C5=O)CC3)c(C(F)(F)F)c2)cc1C#Cc1cnc2cccnn12 (stereo not drawn) [SIAIS220050, N-(4-((4-(7-((2-(2,6-dioxopiperidin-3-yl)-1,3-dioxoisoindolin-4-yl)thio)heptanoyl)piperazin-1-yl)methyl)-3-(trifluoromethyl)phenyl)-3-(imidazo[1,2-b]pyridazin-3-ylethynyl)-4-methylbenzamide]	12.8	
Cc1ccc(C(=O)Nc2ccc(CN3CCN(C(=O)CCCCCCSc4cccc5c4CN(C4CCC(=O)NC4=O)C5=O)CC3)c(C(F)(F)F)c2)cc1C#Cc1cnc2cccnn12 (stereo not drawn) [SIAIS220056, N-(4-((4-(7-((2-(2,6-dioxopiperidin-3-yl)-1-oxoisoindolin-4-yl)thio)heptanoyl)piperazin-1-yl)methyl)-3-(trifluoromethyl)phenyl)-3-(imidazo[1,2-b]pyridazin-3-ylethynyl)-4-methylbenzamide]	5.98	
Cc1nc2c(F)cc(-c3nc(Nc4ccc(CN5CCN(CCCCCCSc6cccc7c6CN(C6CCC(=O)NC6=O)C7=O)CC5)cn4)ncc3F)cc2n1C(C)C (stereo not drawn) [SIAIS262173, 3-(4-((6-(4-((6-((5-fluoro-4-(4-fluoro-1-isopropyl-2-methyl-1H-benzo[d]imidazol-6-yl)pyrimidin-2-yl)amino)pyridin-3-yl)methyl)piperazin-1-yl)hexyl)thio)-1-oxoisoindolin-2-yl)piperidine-2,6-dione]		DC50 (CDK4/6 protein): 0.05 to 0.5 nM

The next lines start with results.

IC50 [1] [nM]	Compound	further results
0.09	Cc1nc(Nc2ncc(C(=O)Nc3c(C)cccc3Cl)s2)cc(N2CCN(CCCSc3cccc4c3CN(C3CCC(=O)NC3=O)C4=O)CC2)n1 (stereo not drawn) [SIAIS171181, N-(2-chloro-6-methylphenyl)-2-((6-(4-(3-((2-(2,6-dioxopiperidin-3-yl)-1-oxoisoindolin-4-yl)thio)propyl)piperazin-1-yl)-2-methylpyrimidin-4-yl)amino)thiazole-5-carboxamide]	
2.97	Cc1ccc(C(=O)Nc2ccc(CN3CCN(C(=O)CCSc4cccc5c4C(=O)N(C4CCC(=O)NC4=O)C5=O)CC3)c(C(F)(F)F)c2)cc1C#Cc1cnc2cccnn12 (stereo not drawn) [SIAIS220046, N-(4-((4-(3-((2-(2,6-dioxopiperidin-3-yl)-1,3-dioxoisoindolin-4-yl)thio)propanoyl)piperazin-1-yl)methyl)-3-(trifluoromethyl)phenyl)-3-(imidazo[1,2-b]pyridazin-3-ylethynyl)-4-methylbenzamide]	
3.23	Cc1ccc(C(=O)Nc2ccc(CN3CCN(C(=O)CCCSc4cccc5c4C(=O)N(C4CCC(=O)NC4=O)C5=O)CC3)c(C(F)(F)F)c2)cc1C#Cc1cnc2cccnn12 (stereo not drawn) [SIAIS220047, N-(4-((4-(4-((2-(2,6-dioxopiperidin-3-yl)-1,3-dioxoisoindolin-4-yl)thio)butanoyl)piperazin-1-yl)methyl)-3-(trifluoromethyl)phenyl)-3-(imidazo[1,2-b]pyridazin-3-ylethynyl)-4-methylbenzamide]	
4.06	Cc1ccc(C(=O)Nc2ccc(CN3CCN(C(=O)CCCCSc4cccc5c4C(=O)N(C4CCC(=O)NC4=O)C5=O)CC3)c(C(F)(F)F)c2)cc1C#Cc1cnc2cccnn12 (stereo not drawn) [SIAIS220048, N-(4-((4-(5-((2-(2,6-dioxopiperidin-3-yl)-1,3-dioxoisoindolin-4-yl)thio)pentanoyl)piperazin-1-yl)methyl)-3-(trifluoromethyl)phenyl)-3-(imidazo[1,2-b]pyridazin-3-ylethynyl)-4-methylbenzamide]	
5.75	Cc1ccc(C(=O)Nc2ccc(CN3CCN(C(=O)CCCCCSc4cccc5c4C(=O)N(C4CCC(=O)NC4=O)C5=O)CC3)c(C(F)(F)F)c2)cc1C#Cc1cnc2cccnn12 (stereo not drawn) [SIAIS220049, N-(4-((4-(6-((2-(2,6-dioxopiperidin-3-yl)-1,3-dioxoisoindolin-4-yl)thio)hexanoyl)piperazin-1-yl)methyl)-3-(trifluoromethyl)phenyl)-3-(imidazo[1,2-b]pyridazin-3-ylethynyl)-4-methylbenzamide]	
1.78	Cc1ccc(C(=O)Nc2ccc(CN3CCN(C(=O)CSc4cccc5c4CN(C4CCC(=O)NC4=O)C5=O)CC3)c(C(F)(F)F)c2)cc1C#Cc1cnc2cccnn12 (stereo not drawn) [SIAIS220051, N-(4-((4-(2-((2-(2,6-dioxopiperidin-3-yl)-1-oxoisoindolin-4-yl)thio)acetyl)piperazin-1-yl)methyl)-3-(trifluoromethyl)phenyl)-3-(imidazo[1,2-b]pyridazin-3-ylethynyl)-4-methylbenzamide]	
2.62	Cc1ccc(C(=O)Nc2ccc(CN3CCN(C(=O)CCSc4cccc5c4CN(C4CCC(=O)NC4=O)C5=O)CC3)c(C(F)(F)F)c2)cc1C#Cc1cnc2cccnn12 (stereo not drawn) [SIAIS220052, N-(4-((4-(3-((2-(2,6-dioxopiperidin-3-yl)-1-oxoisoindolin-4-yl)thio)propanoyl)piperazin-1-yl)methyl)-3-(trifluoromethyl)phenyl)-3-(imidazo[1,2-b]pyridazin-3-ylethynyl)-4-methylbenzamide]	
4.06	Cc1ccc(C(=O)Nc2ccc(CN3CCN(C(=O)CCCSc4cccc5c4CN(C4CCC(=O)NC4=O)C5=O)CC3)c(C(F)(F)F)c2)cc1C#Cc1cnc2cccnn12 (stereo not drawn) [SIAIS220053, N-(4-((4-(4-((2-(2,6-dioxopiperidin-3-yl)-1-oxoisoindolin-4-yl)thio)butanoyl)piperazin-1-yl)methyl)-3-(trifluoromethyl)phenyl)-3-(imidazo[1,2-b]pyridazin-3-ylethynyl)-4-methylbenzamide]	
2.68	Cc1ccc(C(=O)Nc2ccc(CN3CCN(C(=O)CCCCSc4cccc5c4CN(C4CCC(=O)NC4=O)C5=O)CC3)c(C(F)(F)F)c2)cc1C#Cc1cnc2cccnn12 (stereo not drawn) [SIAIS220054, N-(4-((4-(5-((2-(2,6-dioxopiperidin-3-yl)-1-oxoisoindolin-4-yl)thio)pentanoyl)piperazin-1-yl)methyl)-3-(trifluoromethyl)phenyl)-3-(imidazo[1,2-b]pyridazin-3-ylethynyl)-4-methylbenzamide]	
5.58	Cc1ccc(C(=O)Nc2ccc(CN3CCN(C(=O)CCCCCSc4cccc5c4CN(C4CCC(=O)NC4=O)C5=O)CC3)c(C(F)(F)F)c2)cc1C#Cc1cnc2cccnn12 (stereo not drawn) [SIAIS220055, N-(4-((4-(6-((2-(2,6-dioxopiperidin-3-yl)-1-oxoisoindolin-4-yl)thio)hexanoyl)piperazin-1-yl)methyl)-3-(trifluoromethyl)phenyl)-3-(imidazo[1,2-b]pyridazin-3-ylethynyl)-4-methylbenzamide]	
